Source: paper PMC11550483 (2024)

The compounds below were run against SARS2 M^pro (Severe acute respiratory syndrome coronavirus 2, UniProt P0DTD1, P3395H).
Assay type: biochemical, SARS-CoV-2
For `CCc1ccc(C(=O)Cn2c(C)nc([N+](=O)[O-])c2Br)cc1` [MWAC-0001880, CCc1ccc(cc1)C(=O)Cn2c(C)nc(c2Br)[N+](=O)[O-]], the “% inhibition (20 µM) biochemical” value was 0%. With `CC(C)c1cc(NC(=O)CCl)cc(C(C)C)c1O` [MWAC-0001888, CC(C)c1cc(NC(=O)CCl)cc(C(C)C)c1O] the “% inhibition (20 µM) biochemical” value was 80%. With `O=C(Nc1ccc(Cl)cc1)N1CCc2ccccc21` [MWAC-0001717, Clc1ccc(NC(=O)N2CCc3ccccc23)cc1] the “% inhibition (20 µM) biochemical” value was 6%. With `CC1=CC(C)(C)N2C(=O)C(=O)c3cc(OC(=O)c4cccc(F)c4)cc1c32` [MWAC-0001768, CC1=CC(C)(C)N2C(=O)C(=O)c3cc(OC(=O)c4cccc(F)c4)cc1c23] the “% inhibition (20 µM) biochemical” value was 2.41%. For `Cc1ccc(OCCN2C(=O)C(=O)c3ccccc32)cc1` [MWAC-0001827, Cc1ccc(OCCN2C(=O)C(=O)c3ccccc23)cc1], the “% inhibition (20 µM) biochemical” value was 4.54%. For `O=C(CCCN1C(=O)/C(=C\c2ccco2)SC1=S)Nc1cc(Cl)ccc1O` [MWAC-0000351, Oc1ccc(Cl)cc1NC(=O)CCCN2C(=S)S\C(=C\c3occc3)\C2=O], the “% inhibition (20 µM) biochemical” value was 2.86%. For `COc1ccc2c(=O)cc(-c3ccc4c(c3)OCCO4)oc2c1` [MWAC-0001860, COc1ccc2C(=O)C=C(Oc2c1)c3ccc4OCCOc4c3], the “% inhibition (20 µM) biochemical” value was 100%. For `COc1cc(C#N)ccc1OCc1ccc(Cl)cc1` [MWAC-0001772, COc1cc(ccc1OCc2ccc(Cl)cc2)C#N], the “% inhibition (20 µM) biochemical” value was 0.301%. In the case of `CCOc1ccccc1N1C(=O)CC(Sc2nnc(-c3ccccc3)[nH]2)C1=O` (stereo not shown) [MWAC-0001798, CCOc1ccccc1N2C(=O)CC(Sc3nnc([nH]3)c4ccccc4)C2=O], the “% inhibition (20 µM) biochemical” value was 2.63%. In the case of `O=C1N(Cc2ccccc2)c2ccccc2C12NNc1ccccc1O2` (stereo not shown) [MWAC-0001855, O=C1N(Cc2ccccc2)c3ccccc3C14NNc5ccccc5O4], the “% inhibition (20 µM) biochemical” value was 2.76%. With `CC(C)(C)NC(=O)N[C@H](C(=O)N1C[C@H]2[C@@H]([C@H]1C(=O)NC(CC1CCC1)C(=O)C(N)=O)C2(C)C)C(C)(C)C` (stereo partly shown) [Boceprevir, reference compound] the “% inhibition (20 µM) biochemical” value was 73.0971%. With `O=C(CCl)NC(NC(=O)CCl)c1ccccc1F` [MWAC-0001862, Fc1ccccc1C(NC(=O)CCl)NC(=O)CCl] the “% inhibition (20 µM) biochemical” value was 40%. `Cc1ccc(Cn2cc(SCC(=O)NCc3ccco3)c3ccccc32)cc1` [MWAC-0001818, Cc1ccc(Cn2cc(SCC(=O)NCc3occc3)c4ccccc24)cc1] was tested, and the “% inhibition (20 µM) biochemical” value was 3.38%. `Cc1cc(C(=O)CCl)c(C)n1CCc1cccs1` [MWAC-0001825, Cc1cc(C(=O)CCl)c(C)n1CCc2cccs2] was tested, and the “% inhibition (20 µM) biochemical” value was 56%. With `O=C(Nc1ccc(-c2cscn2)cc1)C1CCCN(Cc2ccccc2)C1` (stereo not shown) [MWAC-0001767, O=C(Nc1ccc(cc1)c2cscn2)C3CCCN(Cc4ccccc4)C3] the “% inhibition (20 µM) biochemical” value was 3.2%. For `COc1ccc(C(CNC(=O)CCl)N2CCCCC2)cc1` (stereo not shown) [MWAC-0001849, COc1ccc(cc1)C(CNC(=O)CCl)N2CCCCC2], the “% inhibition (20 µM) biochemical” value was 33%. For `CCOc1ccc(C2NC(=O)c3[nH]nc(-c4cccc(OC)c4)c32)cc1` (stereo not shown) [MWAC-0001753, CCOc1ccc(cc1)C2NC(=O)c3[nH]nc(c4cccc(OC)c4)c23], the “% inhibition (20 µM) biochemical” value was 18%. For `CCOc1ccc2nc(NC(=O)C3CC3)sc2c1` [MWAC-0001795, CCOc1ccc2nc(NC(=O)C3CC3)sc2c1], the “% inhibition (20 µM) biochemical” value was 8%. With `COc1ccc(C(=O)NNC(=O)Cc2ccc(-c3ccccc3)cc2)cc1` [MWAC-0001846, COc1ccc(cc1)C(=O)NNC(=O)Cc2ccc(cc2)c3ccccc3] the “% inhibition (20 µM) biochemical” value was 0.595%. `COc1ccc(C=O)cc1OS(=O)(=O)c1ccc(C)cc1` [MWAC-0001771, COc1ccc(C=O)cc1OS(=O)(=O)c2ccc(C)cc2] was tested, and the “% inhibition (20 µM) biochemical” value was 3.71%. In the case of `COc1ccc(OC)c(NC(=O)CSc2nc3cc4c(cc3cc2C#N)OCCO4)c1` [MWAC-0001834, COc1ccc(OC)c(NC(=O)CSc2nc3cc4OCCOc4cc3cc2C#N)c1], the “% inhibition (20 µM) biochemical” value was 5.66%. With `Cc1cc(C)c2oc(-c3ccc(C)c(N)c3)nc2c1` [MWAC-0001715, Cc1cc(C)c2oc(nc2c1)c3ccc(C)c(N)c3] the “% inhibition (20 µM) biochemical” value was 0%.
